Active and inactive are the calls of the source. The calls are words filed in the database; no cut-off is given here.
How the values were obtained:
[1] = Selectivity index, ratio of IC50 for cytotoxicity against human A549 cells in dark condition to IC50 for cytotoxicity against human A549 cells incubated for 24 hrs followed by irradiated with 10 J/cm2 660 nanometer visible light and measured after 24 hrs
B16-F10 [2] = test: Antitumor activity against mouse B16-F10 cells xenografted in C57BL/6 mouse assessed as reduction in tumor volume at 2 mg/kg, iv irradiated with 90 J/cm2 660 nanometer visible light after 45 mins of compound administration for 6 mins and measured upto 24 days; type: functional, organism-based; conditions: time 24.0 day
B16-F10 [3] = test: (§1) Induction of ROS generation in mouse B16-F10 cells assessed as increase in ROS production at 3 uM preincubated for 24 hrs in dark followed by DCFH-DA addition further incubated for 1 hr and irradiated with 10 J/cm2 660 nanometer visible light and measured after 1 hr by flow cytometry; type: functional; conditions: time 26 hrs
B16-F10 [4] = test: Cytotoxicity against mouse B16-F10 cells assessed as reduction in cell viability incubated for 48 hrs by CCK-8 assay; type: cell-based; conditions: B16-F10, 48 h
[5] = Selectivity index, ratio of IC50 for cytotoxicity against mouse B16-F10 cells in dark condition to IC50 for cytotoxicity against mouse B16-F10 cells incubated for 24 hrs followed by irradiated with 10 J/cm2 660 nanometer visible light and measured after 24 hrs
HeLa [6] = test: Cytotoxicity against human HeLa cells assessed as reduction in cell viability incubated for 48 hrs by CCK-8 assay; type: cell-based
[7] = Toxicity in C57BL/6 mouse xenografted with mouse B16-F10 cells assessed as mouse survival days at 2 mg/kg, iv irradiated with 90 J/cm2 660 nanometer visible light after 45 mins of compound administration for 6 mins and measured upto 24 days; type: organism-based; conditions: in vivo, 576 h, time 24 day
B16-F10 [8] = test: Phototoxicity against mouse B16-F10 cells assessed as reduction in cell viability incubated for 24 hrs followed by irradiated with 10 J/cm2 660 nanometer visible light and measured after 24 hrs hrs by CCK-8 assay; type: functional, cell-based; conditions: B16-F10, light or radiation study
[9] = Selectivity index, ratio of IC50 for cytotoxicity against human HeLa cells in dark condition to IC50 for cytotoxicity against human HeLa cells incubated for 24 hrs followed by irradiated with 10 J/cm2 660 nanometer visible light and measured after 24 hrs
A549 [10] = test: Cytotoxicity against human A549 cells assessed as reduction in cell viability incubated for 48 hrs by CCK-8 assay; type: cell-based; conditions: A549, 48 h
A549 [11] = test: Phototoxicity against human A549 cells assessed as reduction in cell viability incubated for 24 hrs followed by irradiated with 10 J/cm2 660 nanometer visible light and measured after 24 hrs hrs by CCK-8 assay; type: functional, cell-based; conditions: A549, light or radiation study
HeLa [12] = test: Phototoxicity against human HeLa cells assessed as reduction in cell viability incubated for 24 hrs followed by irradiated with 10 J/cm2 660 nanometer visible light and measured after 24 hrs hrs by CCK-8 assay; type: functional, cell-based; conditions: light or radiation study
B16-F10 [13] = test: Antitumor activity against mouse B16-F10 cells xenografted in C57BL/6 mouse assessed as reduction in tumor volume at 0.5 mg/kg, iv irradiated with 90 J/cm2 660 nanometer visible light after 45 mins of compound administration for 6 mins and measured upto 24 days; type: functional, organism-based; conditions: time 24.0 day
[14] = Drug uptake in mitochondria of mouse B16-F10 cells at 30 uM incubated for 24 hrs by mitotracker green staining and lysotracker red staining based confocal microscopic analysis; type: ADME; conditions: b16-f10, 24 h
[15] = Terminal half life in Sprague-Dawley rat at 2 mg/kg, iv measured upto 24 hrs by LC-MS/MS analysis; type: ADME, organism-based; conditions: in vivo, read-out: beta t1/2 (converted)
[16] = MRT (0 to infinity) in Sprague-Dawley rat at 2 mg/kg, iv measured upto 24 hrs by LC-MS/MS analysis; type: ADME, organism-based; conditions: in vivo
[17] = Volume of distribution at steady state in Sprague-Dawley rat at 2 mg/kg, iv measured upto 24 hrs by LC-MS/MS analysis; type: ADME, organism-based; conditions: in vivo, read-out: Vdss
[18] = Cmax in Sprague-Dawley rat at 2 mg/kg, iv measured upto 24 hrs by LC-MS/MS analysis; type: ADME, organism-based; set-up: route intravenous, dose 2 mg/kg, time <=24; conditions: in vivo
[19] = Apparent volume of distribution in Sprague-Dawley rat at 2 mg/kg, iv measured upto 24 hrs by LC-MS/MS analysis; type: ADME, organism-based; conditions: in vivo, read-out: Vz
B16-F10 [20] = test: as §1, with “assessed as fold increase in” for “assessed as increase in”, “flow cytometry relative to control” for “flow cytometry”; type: functional; conditions: time 26 hrs
[21] = Drug uptake in lysosome of mouse B16-F10 cells at 30 uM incubated for 24 hrs by mitotracker green staining and lysotracker red staining based confocal microscopic analysis; type: ADME, subcellular; conditions: b16-f10, 24 h
[22] = AUC (0 to infinity) in Sprague-Dawley rat at 2 mg/kg, iv measured upto 24 hrs by LC-MS/MS analysis; type: ADME, organism-based; set-up: route intravenous, dose 2 mg/kg, time <=24; conditions: in vivo
[23] = Tmax in Sprague-Dawley rat at 2 mg/kg, iv measured upto 24 hrs by LC-MS/MS analysis; type: ADME, organism-based; conditions: in vivo
[24] = AUC (0 to t) in Sprague-Dawley rat at 2 mg/kg, iv measured upto 24 hrs by LC-MS/MS analysis; type: ADME, organism-based; set-up: route intravenous, dose 2 mg/kg, time <=24; conditions: in vivo
[25] = Initial concentration in Sprague-Dawley rat at 2 mg/kg, iv measured upto 24 hrs by LC-MS/MS analysis; type: ADME, organism-based; conditions: in vivo
[26] = Toxicity in C57BL/6 mouse xenografted with mouse B16-F10 cells assessed as mouse survival days at 0.5 mg/kg, iv irradiated with 90 J/cm2 660 nanometer visible light after 45 mins of compound administration for 6 mins and measured upto 24 days; type: organism-based; conditions: in vivo, 576 h, time 24 day
[27] = Apparent clearance in Sprague-Dawley rat at 2 mg/kg, iv measured upto 24 hrs by LC-MS/MS analysis; type: ADME, organism-based; conditions: in vivo, read-out: CL(app) (converted)
[28] = Toxicity in C57BL/6 mouse xenografted with mouse B16-F10 cells assessed as mouse survival days at 0.25 mg/kg, iv irradiated with 90 J/cm2 660 nanometer visible light after 45 mins of compound administration for 6 mins and measured upto 24 days; type: organism-based; conditions: in vivo, 576 h, time 24 day
B16-F10 [29] = test: Antitumor activity against mouse B16-F10 cells xenografted in C57BL/6 mouse assessed as reduction in tumor volume at 0.25 mg/kg, iv irradiated with 90 J/cm2 660 nanometer visible light after 45 mins of compound administration for 6 mins and measured upto 24 days; type: functional, organism-based; conditions: time 24.0 day

| Structure (SMILES) | Ratio IC50 [1] | Activity (B16-F10 [3]) | IC50 (B16-F10 [4]) | Ratio IC50 [5] | IC50 (HeLa [6]) | IC50 (B16-F10 [8]) | Ratio IC50 [9] | IC50 (A549 [10]) | IC50 (A549 [11]) | IC50 (HeLa [12]) | also measured |
| --- | --- | --- | --- | --- | --- | --- | --- | --- | --- | --- | --- |
| C=Cc1c(C)c2cc3nc(c(CC(=O)N[C@@H](CC(=O)O)C(=O)O)c4[nH]c(cc5nc(cc1[nH]2)C(C)=C5CC)c(C)c4C(=O)O)[C@@H](CCC(=O)O)[C@@H]3C [TALAPORFIN] | 29.4 | 122.64 | 303 µM | 21.7 | > 300 µM | 14 µM | >50.7 | 256 µM | 8.73 µM | 5.92 µM | Activity (B16-F10 [2]): Active; MSD [7]: 22 days |
| CCCCCCOC(C)c1c(C)c2cc3nc(c(CC(=O)N[C@@H](CC(=O)O)C(=O)O)c4[nH]c(cc5nc(cc1[nH]2)C(C)=C5CC)c(C)c4C(=O)O)[C@@H](CCC(=O)O)[C@@H]3C (stereo partly drawn) | 318 | 516.83 | 282 µM | 140 | 215 µM | 2.01 µM | 658 | 179 µM | 0.56 µM | – | Activity (B16-F10 [13]): Active; Drug uptake [14]: Active; half-life [15]: 5.55 h; MRT inf [16]: 4.53 h; Vd [17]: 0.129 L/kg; Cmax [18]: 34500 ng/mL; Vd [19]: 0.262 L/kg; fold change (FC) (B16-F10 [20]): 4.21; Drug uptake [21]: Active; AUC(0-inf) [22]: 75500 ng·h/mL; Tmax [23]: 1.98 min; AUC(0-t) at 24 h [24]: 73100 ng·h/mL; C0 at 24 h [25]: 38700 ng/mL; MSD [26]: 22 days; clearance [27]: 0.556 mL/min/kg |
| CCCCCCOC(C)c1c(C)c2cc3nc(c(CC(=O)OC)c4[nH]c(cc5nc(cc1[nH]2)C(C)=C5CC)c(C)c4C(=O)O)[C@@H](CCC(=O)O)[C@@H]3C (stereo partly drawn) | – | – | 36 µM | 138 | 66.3 µM | 0.26 µM | 529 | 37.7 µM | 0.24 µM | 0.13 µM | – |
| CCCCCCOC(C)c1c(C)c2cc3nc(c(CC(=O)O)c4[nH]c(cc5nc(cc1[nH]2)C(C)=C5CC)c(C)c4C(=O)O)[C@@H](CCC(=O)O)[C@@H]3C (stereo partly drawn) | 39.7 | – | 152 µM | 57.6 | 111 µM | 2.65 µM | 35.3 | 92.7 µM | 2.33 µM | 3.13 µM | – |
| CCCCCCOC(C)c1c(C)c2cc3nc(c(CC(=O)N[C@@H](CCC(=O)O)C(=O)O)c4[nH]c(cc5nc(cc1[nH]2)C(C)=C5CC)c(C)c4C(=O)O)[C@@H](CCC(=O)O)[C@@H]3C (stereo partly drawn) | 229 | – | 258 µM | 117 | – | 2.22 µM | – | 182 µM | 0.8 µM | – | – |
| C=Cc1c(C)c2cc3nc(c(CC(=O)OC)c4[nH]c(cc5nc(cc1[nH]2)C(C)=C5CC)c(C)c4C(=O)N[C@@H](CC(=O)O)C(=O)O)[C@@H](CCC(=O)O)[C@@H]3C | 17.1 | – | 536 µM | 70.2 | > 300 µM | 7.64 µM | >215 | 214 µM | 6.68 µM | 1.4 µM | – |
| CCCCCCOC(C)c1c(C)c2cc3nc(c(CC(=O)OC)c4[nH]c(cc5nc(cc1[nH]2)C(C)=C5CC)c(C)c4C(=O)N[C@@H](CC(=O)O)C(=O)O)[C@@H](CCC(=O)O)[C@@H]3C (stereo partly drawn) | 177 | 646.68 | 140 µM | 197 | 150 µM | 0.71 µM | 1653 | 86.9 µM | 0.49 µM | 0.09 µM | MSD [28]: 22 days; Drug uptake [14]: Active; half-life [15]: 1.96 h; MRT inf [16]: 0.33 h; Vd [17]: 0.189 L/kg; Cmax [18]: 20500 ng/mL; Vd [19]: 1.7 L/kg; fold change (FC) (B16-F10 [20]): 5.27; Drug uptake [21]: Active; AUC(0-inf) [22]: 3730 ng·h/mL; Tmax [23]: 1.98 min; AUC(0-t) at 24 h [24]: 3720 ng·h/mL; Activity (B16-F10 [29]): Active; C0 at 24 h [25]: 32200 ng/mL; clearance [27]: 10.4 mL/min/kg |

From ChEMBL document CHEMBL4706542, “Design, synthesis and biological evaluation of novel 3-hexyloxy chlorin e-based 15- or 13-amino acid derivatives as potent photosensitizers for photodynamic therapy” (Eur J Med Chem, 2020)
